We go through 22 compounds from EP3876933B1, “NEUTROPHIL INFLAMMATION INHIBITOR AND USES THEREOF” (Chang Gung University of Science and Technology, priority 2018, dated 2020).

Test [1] has as its system human neutrophils. The experiment in a line: Superoxide anion (O2˙-) generation in fMLF/CB-activated human neutrophils (SOD-inhibitable ferricytochrome c reduction). It counts as cell-based. As to conditions: FMLP/CB-induced human neutrophils, mean ± S.E.M. (n = 3-5); for IC50 / inhibition at 10 µM: Neutrophil; for IC50: read-out: Superoxide Anion IC50. The protocol:
(§1) Human neutrophils were obtained in lipopolysaccharide-free conditions by means of dextran sedimentation and Ficoll centrifugation.
O2˙^- production was determined based on the SOD-inhibitable reduction of ferricytochrome c. Briefly, neutrophils (6 × 10^5/mL) were treated with a candidate compound at 37 °C at various concentrations (0.001 to 10 µM) for 5 min after being supplementing with 0.5 mg/mL ferricytochrome c and 1 mM Ca^2+. Cells were then activated with fMLF (0.1 µM) for 10 min in the pre-process of cytochalasin B (CB, 1 µg/mL) for 3 min. Changes in absorbance with the reduction of ferricytochrome c at 550 nm were continuously monitored in a double-beam, six-cell positioner spectrophotometer with constant stirring (Hitachi U-3010, Tokyo, Japan). Calculations were based on the differences in the reactions with and without SOD (100 U ml^-1) divided by the extinction coefficient for the reduction of ferricytochrome c (ε = 21.1 mM^-1/10 mm).

The test system of test [2] is human neutrophils. Nature of the test: Elastase release in fMLF/CB-activated human neutrophils (Methoxysuccinyl-Ala-Ala-Pro-Val-p-nitroanilide substrate). The format is cell-based. As to conditions: Neutrophil, FMLP/CB-induced human neutrophils, mean ± S.E.M. (n = 3-5); for IC50: read-out: Elastase Release IC50; for inhibition at 10 µM: at 10 µM concentration. As for the experimental part:
as §1
Methoxysuccinyl-Ala-Ala-Pro-Val-p-nitroanilide was employed as the elastase substrate for the determination of elastase release. Briefly, after supplementation with Methoxysuccinyl-Ala-Ala-Pro-Val-p-nitroanilide (100 µM), neutrophils (6 × 10^5/mL) were equilibrated at 37 °C for 2 min and incubated with a candidate compound at various concentrations for 5 min. Cells were then activated with fMLF (0.1 µM) for 10 min in the pre-process of CB (0.5 µg/mL) for 3 min, and changes in absorbance at 405 nm were continuously monitored to evaluate elastase release. Results are expressed as the percentage of elastase release in the drug-free control group, DMSO.

Bounds are passed on as bounds.

As for `Cn1nc(N)c2c(Nc3ccccc3)nc3ccccc3c21` [Compound 3, 4-Anilino-l-methyl-1H-pyrazolo[4,3-c]quinolin-3-amine], the IC50 (as a rule, the midpoint of a concentration-inhibition curve) in the test with human neutrophils [1] worked out at 2.39 ± 0.63 µM; in the test with human neutrophils [2] it was 4.09 ± 1.02 µM. Besides, the values for the inhibition at 10 µM with human neutrophils [1] (at 10 µM concentration) and in the test on human neutrophils [2] were 93.9 ± 6.32% and 80.5 ± 2.57%, respectively.

On to `Cn1nc(N)c2c(Nc3ccc(F)cc3)nc3ccccc3c21` [Compound 4, 4-(4-Fluoroanilino)-1-methyl-1H-pyrazolo[4,3-c]quinolin-3-amine], for which the IC50 in the test with human neutrophils [1] came out at 1.44 ± 0.22 µM; in the test on human neutrophils [2], 5.5 ± 1.5 µM. Besides, the inhibition (in general, the change of the read-out against control, counted positive when it falls) at 10 µM in the test with human neutrophils [1] (at 10 µM concentration) came out at 91.2 ± 4.43%; in the test with human neutrophils [2] it was 68 ± 6.8%.

As for `COc1ccccc1Nc1nc2ccccc2c2c1c(N)nn2C` [Compound 5, 4-(2-Methoxyanilino)-1-methyl-1H-pyrazolo[4,3-c]quinolin-3-amine], the results for the half-maximal inhibitory concentration (IC50) in the test on human neutrophils [1] and in the test on human neutrophils [2] were 1.37 ± 0.08 µM and 4.65 ± 2.57 µM, respectively. For the same compound, the inhibition at 10 µM came out at 90.1 ± 3.38% in the test on human neutrophils [1] (at 10 µM concentration) and 66 ± 6.51% with human neutrophils [2].

Take `COc1cccc(Nc2nc3ccccc3c3c2c(N)nn3C)c1` [Compound 6, 4-(3-Methoxyanilino)-1-methyl-1H-pyrazolo[4,3-c]quinolin-3-amine]: the IC50 with human neutrophils [1] and in the test with human neutrophils [2] was more than 10 µM each time. Besides, the figures for the inhibition at 10 µM with human neutrophils [1] (at 10 µM concentration) and with human neutrophils [2] were 27.5 ± 5.47% and 33.4 ± 6.04%, respectively.

`COc1ccc(Nc2nc3ccccc3c3c2c(N)nn3C)cc1` [Compound 7, 4-(4-Methoxyanilino)-1-methyl-1H-pyrazolo[4,3-c]quinolin-3-amine]: the IC50 came to 0.51 ± 0.17 µM in the test with human neutrophils [1] and 3.77 ± 0.71 µM in the test on human neutrophils [2]. Besides, the inhibition at 10 µM in the test on human neutrophils [1] (at 10 µM concentration) came to 99.3 ± 1.51%; in the test with human neutrophils [2] it was 96.7 ± 6.56%.

As for `COc1cc(Nc2nc3ccccc3c3c2c(N)nn3C)cc(OC)c1OC` [Compound 8, 4-(3,4,5-Trimethoxyanilino)-1-methyl-1H-pyrazolo[4,3-c]quinolin-3-amine], the IC50 with human neutrophils [1] came to 0.8 ± 0.09 µM; with human neutrophils [2], 3.25 ± 0.08 µM. In addition, the inhibition at 10 µM in the test on human neutrophils [1] (at 10 µM concentration) is 98.2 ± 2.41%; with human neutrophils [2] it was 89.8 ± 6.51%.

Take `CSc1ccc(Nc2nc3ccccc3c3c2c(N)nn3C)cc1` [Compound 9, 1-Methyl-4-(4-methylthioanilino)-1H-pyrazolo[4,3-c]quinolin-3-amine]: the IC50 with human neutrophils [1] and in the test on human neutrophils [2] was more than 10 µM in each case. Also, the inhibition at 10 µM in the test with human neutrophils [1] (at 10 µM concentration) stood at 47.7 ± 3.32%; with human neutrophils [2], 20.8 ± 3.75%.

On to `CC(=O)c1ccc(Nc2nc3ccccc3c3c2c(N)nn3C)cc1` [Compound 10, 4-(4-Acetoylanilino)-1-methyl-1H-pyrazolo[4,3-c]quinolin-3-amine], for which the IC50 in the test with human neutrophils [1] worked out at 1.58 µM; with human neutrophils [2] it was 4.63 ± 1.1 µM. Besides, the figures for the inhibition at 10 µM in the test on human neutrophils [1] (at 10 µM concentration) and in the test with human neutrophils [2] were 85.1 ± 1.66% and 57.2%, respectively.

As for `Cn1nc(N)c2c(Nc3ccccc3O)nc3ccccc3c21` [Compound 11, 4-(2-Hydroxyanilino)-1-methyl-1H-pyrazolo[4,3-c]quinolin-3-amine], the results for the IC50 with human neutrophils [1] and in the test with human neutrophils [2] were 0.73 ± 0.23 µM and 2.24 ± 0.91 µM, respectively. In addition, the inhibition at 10 µM in the test on human neutrophils [1] (at 10 µM concentration) came to 93.5 ± 1.75%; with human neutrophils [2], 101 ± 4.5%.

With `Cn1nc(N)c2c(Nc3cccc(O)c3)nc3ccccc3c21` [Compound 12, 4-(3-Hydroxyanilino)-1-methyl-1H-pyrazolo[4,3-c]quinolin-3-amine], the IC50 with human neutrophils [1] was found to be 1.89 ± 0.69 µM; in the test with human neutrophils [2] it was 4.62 ± 1.74 µM. The inhibition at 10 µM turned out to be 93.2 ± 3.66% in the test with human neutrophils [1] (at 10 µM concentration) and 94.4 ± 8.34% with human neutrophils [2].

Take `Cn1nc(N)c2c(Nc3ccc(C(F)(F)F)cc3)nc3ccccc3c21` [Compound 14, 4-(4-Trifluoromethylanilino)-1-methyl-1H-pyrazolo[4,3-c]quinolin-3-amine]: the values for the concentration for half-maximal inhibition (IC50) with human neutrophils [1] and in the test with human neutrophils [2] were 4.56 ± 0.83 µM and more than 10 µM, respectively. Besides, the inhibition at 10 µM in the test on human neutrophils [1] (at 10 µM concentration) stood at 63.1 ± 2.51%; with human neutrophils [2], 37.6 ± 6.22%.

Consider `Cn1nc(N)c2c(Nc3ccc(C(=O)O)cc3)nc3ccccc3c21` [Compound 15, 4-[(3-Amino-1-methyl-1H-pyrazolo[4,3-c]quinolin-4-yl)amino]benzoic acid], for which the IC50 stood at 1.83 µM with human neutrophils [1] and 3.68 ± 0.42 µM in the test on human neutrophils [2]. In addition, the inhibition at 10 µM in the test with human neutrophils [1] (at 10 µM concentration) is 82.9 ± 2.86%; in the test on human neutrophils [2], 79.4 ± 1.91%.

Take `Cn1nc(N)c2c(Nc3ccccc3S)nc3ccccc3c21` [Compound 16, 2-[(3-amino-1-methyl-1H-pyrazolo[4,3-c]quinolin-4-yl)amino]benzenethiol]: the IC50 in the test with human neutrophils [1] and in the test with human neutrophils [2] was more than 10 µM throughout. For the same compound, the inhibition at 10 µM in the test with human neutrophils [1] (at 10 µM concentration) was 4.05 ± 2.95%; in the test with human neutrophils [2] it was -3.34 ± 1.78%.

Take `Cn1nc(N)c2c(Nc3ccc(Cl)cc3)nc3ccccc3c21` [Compound 17, 4-(4-Chloroanilino)-1-methyl-1H-pyrazolo[4,3-c]quinolin-3-amine]: the IC50 was 3.49 ± 1.25 µM in the test with human neutrophils [1] and 5.28 ± 0.66 µM in the test with human neutrophils [2]. Moreover, the values for the inhibition at 10 µM in the test with human neutrophils [1] (at 10 µM concentration) and in the test on human neutrophils [2] were 82.8 ± 5.36% and 75.8 ± 6.64%, respectively.

In the case of `Cc1ccc(Nc2nc3ccccc3c3c2c(N)nn3C)cc1` [Compound 18, 4-(4-Methylanilino)-1-methyl-1H-pyrazolo[4,3-c]quinolin-3-amine], the half-inhibitory concentration (IC50) with human neutrophils [1] is 5.21 ± 1.9 µM; in the test with human neutrophils [2] it was more than 10 µM. In addition, the inhibition at 10 µM in the test on human neutrophils [1] (at 10 µM concentration) was determined as 69.7 ± 7.05%; in the test on human neutrophils [2] it was 39.7 ± 3.83%.

Regarding `Nc1noc2c1c(Nc1ccccc1)nc1ccccc12` [Compound 19, 4-Anilinoisoxazolo[4,5-c]quinolin-3-amine], the 50% inhibitory concentration (IC50) in the test with human neutrophils [1] and in the test on human neutrophils [2] was more than 10 µM in each case. For the same compound, the inhibition at 10 µM worked out at 43.7 ± 6.43% in the test with human neutrophils [1] (at 10 µM concentration) and 5.81 ± 5.22% in the test with human neutrophils [2].

In the case of `Nc1noc2c1c(Nc1ccc(F)cc1)nc1ccccc12` [Compound 20, 4-(4-Fluoroanilino)isoxazolo[4,5-c]quinolin-3-amine], the figures for the IC50 with human neutrophils [1] and with human neutrophils [2] were 6.16 ± 1.18 µM and more than 10 µM, respectively. Also, the figures for the inhibition at 10 µM in the test on human neutrophils [1] (at 10 µM concentration) and in the test on human neutrophils [2] were 63.2 ± 7.76% and 10.7 ± 4%, respectively.

Consider `COc1ccccc1Nc1nc2ccccc2c2onc(N)c12` [Compound 21, 4-(2-Methoxyanilino)isoxazolo[4,5-c]quinolin-3-amine], for which the IC50 in the test with human neutrophils [1] and in the test with human neutrophils [2] was more than 10 µM in each case. Besides, the figures for the inhibition at 10 µM in the test on human neutrophils [1] (at 10 µM concentration) and in the test with human neutrophils [2] were 32.7 ± 4.92% and -8.32 ± 2.23%, respectively.

Take `COc1cccc(Nc2nc3ccccc3c3onc(N)c23)c1` [Compound 22, 4-(3-Methoxyanilino)isoxazolo[4,5-c]quinolin-3-amine]: the IC50 in the test with human neutrophils [1] was 6.53 ± 0.9 µM; in the test on human neutrophils [2], more than 10 µM. Also, the inhibition at 10 µM was 69.2 ± 3.14% in the test on human neutrophils [1] (at 10 µM concentration) and -3.61 ± 0.98% in the test with human neutrophils [2].

Consider `COc1ccc(Nc2nc3ccccc3c3onc(N)c23)cc1` [Compound 23, 4-(4-Methoxyanilino)isoxazolo[4,5-c]quinolin-3-amine], for which the IC50 in the test on human neutrophils [1] is 8.59 ± 0.29 µM; with human neutrophils [2], more than 10 µM. Further, the figures for the inhibition at 10 µM in the test with human neutrophils [1] (at 10 µM concentration) and with human neutrophils [2] were 59.1 ± 2.03% and -9.67 ± 3.44%, respectively.

For `COc1cc(Nc2nc3ccccc3c3onc(N)c23)cc(OC)c1OC` [Compound 24, 4-(3,4,5-Trimethoxyanilino)isoxazolo[4,5-c]quinolin-3-amine], the IC50 with human neutrophils [1] and with human neutrophils [2] was more than 10 µM throughout. Besides, the inhibition at 10 µM was 17.1 ± 3.77% in the test with human neutrophils [1] (at 10 µM concentration) and -10.6 ± 3.81% with human neutrophils [2].

Take `CSc1ccc(Nc2nc3ccccc3c3onc(N)c23)cc1` [Compound 25, 4-(4-Methylthioanilino)isoxazolo[4,5-c]quinolin-3-amine]: the “Superoxide Anion Inhibition %” value with human neutrophils [1] (at 10 µM concentration) was “enhanced”. Moreover, in the test with human neutrophils [2], the IC50 is more than 10 µM and the inhibition at 10 µM worked out at 18.1 ± 3.97%.
